The source of these data is paper PMC4050313, “Panaxadiol and Panaxatriol Derivatives as Anti-Hepatitis B Virus Inhibitors” (Natural Products and Bioprospecting, 2014).

Data set [1] is described as follows: Cytotoxicity, modified MTT method. Format: cell-based. Conditions: human; 50 % cytotoxicity concentration in HepG 2.2.15 cells; means of two independent experiments. The procedure: (§1) Based on our previous description, inhibitory activity on HBV (HBsAg, HBeAg and HBV DNA) was evaluated. […] Cytotoxicity was assayed with a modified 3-(4,5-dimethylthiazole-2-yl)-2,5-diphenyltetrazolium bromide (MTT) method (Gibco Invitrogen, Carlsbad, CA, USA). The anti-HBV antigen secretion activities were determined by the enzyme linked immunosorbent assay (ELISA; Autobio Diagnostics Co., Ltd, China). A real-time PCR assay was applied to detect the inhibitory activity on HBV DNA replication.

In the next data set the test system is HBeAg secretion. The experiment in a line: microbe, parasite or virus in culture. It counts as cell-based, Hepatitis B virus. Conditions: Hepatitis B virus, HepG2.2.15, read-out: HBeAg IC50. The procedure: as §1
The next data set relates to HBsAg secretion. Nature of the data set: microbe, parasite or virus in culture. Format: cell-based, Hepatitis B virus. Conditions: Hepatitis B virus, HepG2.2.15, read-out: HBsAg IC50. The procedure:
as §1

The subject of the next data set is HBV DNA replication. The experiment in a line: Inhibition of HBV DNA replication, real-time PCR, HepG 2.2.15 cells. Conditions: Hepatitis B virus, HepG2.2.15; HepG 2.2.15 cells; means of two independent experiments. It counts as cell-based, Hepatitis B virus. The procedure: as §1
In data set [2] the test system is liver injury induced by D-galactosamine and lipopolysaccharide. Set-up: method as in PMID 12880307. Conditions: liver injury induced by D-galactosamine and lipopolysaccharide in mice; cited from earlier work.
Data set [3] deals with herpes simplex virus type I. Set-up: method as in doi:10.3109/13880209509088139. Conditions: cited from earlier work.

For the compound `CC1(C)CCC[C@](C)([C@H]2CC[C@]3(C)[C@@H]2[C@H](O)C[C@@H]2[C@@]4(C)CC[C@H](O)C(C)(C)[C@@H]4CC[C@]23C)O1` [PD, Panaxadiol], in data set [1], it took 0.923 mM to reach half-maximal cytotoxicity (CC50). In addition, the IC50 in the data set with HBeAg secretion was above 2.28 mM; in the data set with HBsAg secretion it was above 2.28 mM; with HBV DNA replication it was 0.148 mM.
On to `CC1(C)CCC[C@](C)([C@H]2CC[C@]3(C)[C@@H]2[C@H](O)C[C@@H]2[C@@]4(C)CC[C@H](O)C(C)(C)[C@@H]4[C@@H](O)C[C@]23C)O1` [PT, Panaxatriol], for which the CC50 in data set [1] is above 2.42 mM. Moreover, the IC50 is above 2.42 mM in the data set on HBeAg secretion, above 2.42 mM with HBsAg secretion and 0.669 mM with HBV DNA replication.
`CC(C)=CCC[C@](C)(O[C@@H]1O[C@H](CO[C@@H]2OC[C@@H](O)[C@H](O)[C@H]2O)[C@@H](O)[C@H](O)[C@H]1O)[C@H]1CC[C@]2(C)[C@@H]1[C@H](O)C[C@@H]1[C@@]3(C)CC[C@H](O[C@@H]4O[C@H](CO)[C@@H](O)[C@H](O)[C@H]4O[C@@H]4O[C@H](CO)[C@@H](O)[C@H](O)[C@H]4O)C(C)(C)[C@@H]3CC[C@]12C` [Rb3, ginsenoside Rb3]: the hepatoprotective activity entry in data set [2] was “showed hepatoprotective activity”.
Take `CC(C)=CCC[C@](C)(O[C@@H]1O[C@H](CO[C@@H]2O[C@@H](CO)[C@H](O)[C@H]2O)[C@@H](O)[C@H](O)[C@H]1O)[C@H]1CC[C@]2(C)[C@@H]1[C@H](O)C[C@@H]1[C@@]3(C)CC[C@H](O[C@@H]4O[C@H](CO)[C@@H](O)[C@H](O)[C@H]4O[C@@H]4O[C@H](CO)[C@@H](O)[C@H](O)[C@H]4O)C(C)(C)[C@@H]3CC[C@]12C` [Rc, ginsenoside Rc]: the hepatoprotective activity result in data set [2] was “showed hepatoprotective activity”.
For `CC(C)=CCC[C@](C)(O[C@@H]1O[C@H](CO)[C@@H](O)[C@H](O)[C@H]1O)[C@H]1CC[C@]2(C)[C@@H]1[C@H](O)C[C@@H]1[C@@]3(C)CC[C@H](O[C@@H]4O[C@H](CO)[C@@H](O)[C@H](O)[C@H]4O[C@@H]4O[C@H](CO)[C@@H](O)[C@H](O)[C@H]4O)C(C)(C)[C@@H]3CC[C@]12C` [Rd, ginsenoside Rd], the hepatoprotective activity result in data set [2] is recorded as “showed hepatoprotective activity”.
The compound `C[C@H](Cn1cnc2c(N)ncnc21)OCP(=O)(O)O` [Tf, Tenofovir, reference compound] registered a CC50 in data set [1] above 1.72 mM. Moreover, the figures for the IC50 in the data set with HBeAg secretion, in the data set with HBsAg secretion and in the data set on HBV DNA replication were 1.24 mM, 1.39 mM and 0.00071 mM, respectively.
As for `CC(C)=CCC[C@](C)(O[C@@H]1O[C@H](CO[C@@H]2O[C@H](CO)[C@@H](O)[C@H](O)[C@H]2O)[C@@H](O)[C@H](O)[C@H]1O)[C@H]1CC[C@]2(C)[C@@H]1[C@H](O)C[C@@H]1[C@@]3(C)CC[C@H](O[C@@H]4O[C@H](CO)[C@@H](O)[C@H](O)[C@H]4O)C(C)(C)[C@@H]3CC[C@]12C` [XVII, ginsenoside XVII], the hepatoprotective activity result in data set [2] is reported as “showed hepatoprotective activity”.
As to `CC(C)=CCC[C@](C)(O)[C@H]1CC[C@]2(C)[C@@H]1[C@H](O)C[C@@H]1[C@@]3(C)CC[C@H](O[C@@H]4O[C@H](CO[C@@H]5OC[C@@H](O)[C@H](O)[C@H]5O)[C@@H](O)[C@H](O)[C@H]4O[C@@H]4O[C@H](CO)[C@@H](O)[C@H](O)[C@H]4O)C(C)(C)[C@@H]3CC[C@]12C` [chikusetsusaponin III], in data set [3], the “ID50, reduced yield of herpes simplex virus type I” value was 0.029 mM.
Turning to `CC(C)=CCC[C@](C)(O[C@@H]1O[C@H](CO)[C@@H](O)[C@H](O)[C@H]1O)[C@H]1CC[C@]2(C)[C@@H]1[C@H](O)C[C@@H]1[C@@]3(C)CC[C@H](O)C(C)(C)[C@@H]3[C@@H](O[C@@H]3O[C@H](CO)[C@@H](O)[C@H](O)[C@H]3O[C@@H]3OC[C@@H](O)[C@H](O)[C@H]3O)C[C@]12C` [notoginsenoside R1], the hepatoprotective activity entry in data set [2] is listed as “showed hepatoprotective activity”.
